Reference: PMC5614966, “Xanthates As Useful Probes for Testing the Active Sites of Cytochromes P450 4A11 and 2E1” (Frontiers in Pharmacology, 2017)

T1: CYP4A11 (Homo sapiens, UniProt Q02928)
T1 sequence (Q02928 5-519): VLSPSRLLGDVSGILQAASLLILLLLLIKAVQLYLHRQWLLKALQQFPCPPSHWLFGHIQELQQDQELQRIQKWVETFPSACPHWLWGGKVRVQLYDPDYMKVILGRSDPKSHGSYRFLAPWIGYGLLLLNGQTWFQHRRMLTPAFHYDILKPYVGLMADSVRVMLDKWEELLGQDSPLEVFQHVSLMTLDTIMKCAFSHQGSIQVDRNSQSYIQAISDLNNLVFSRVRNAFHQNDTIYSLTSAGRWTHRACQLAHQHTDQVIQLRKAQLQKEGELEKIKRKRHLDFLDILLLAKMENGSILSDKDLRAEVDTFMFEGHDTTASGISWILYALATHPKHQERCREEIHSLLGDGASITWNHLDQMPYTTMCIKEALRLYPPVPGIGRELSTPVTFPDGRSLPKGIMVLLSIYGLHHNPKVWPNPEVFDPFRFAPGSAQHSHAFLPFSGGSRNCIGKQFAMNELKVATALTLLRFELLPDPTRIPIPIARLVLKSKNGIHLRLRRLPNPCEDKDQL


Assays:
CYP2E1 = CYP2E1 (Oryctolagus cuniculus, UniProt P08682); assay: time- and concentration-dependent (mechanism-based) inactivation of 7-EFC O-deethylation, KI with kinact […] min^-1; assay type: biochemical; conditions: read-out: KI_inact
CYP4A11 = target: T1, CYP4A11; assay: inhibition of lauric acid omega-hydroxylation by CYP4A11 supersomes, HPLC-fluorescence, Lineweaver-Burk; assay type: biochemical
[1] = substrate: CCCCCCCCCCCC(=O)O; assay: Michaelis-Menten kinetics of omega-hydroxylation by CYP4A11 supersomes (Km); assay type: biochemical, Homo sapiens; conditions: heme; NADPH

Sequence of CYP2E1 (P08682 whole entry): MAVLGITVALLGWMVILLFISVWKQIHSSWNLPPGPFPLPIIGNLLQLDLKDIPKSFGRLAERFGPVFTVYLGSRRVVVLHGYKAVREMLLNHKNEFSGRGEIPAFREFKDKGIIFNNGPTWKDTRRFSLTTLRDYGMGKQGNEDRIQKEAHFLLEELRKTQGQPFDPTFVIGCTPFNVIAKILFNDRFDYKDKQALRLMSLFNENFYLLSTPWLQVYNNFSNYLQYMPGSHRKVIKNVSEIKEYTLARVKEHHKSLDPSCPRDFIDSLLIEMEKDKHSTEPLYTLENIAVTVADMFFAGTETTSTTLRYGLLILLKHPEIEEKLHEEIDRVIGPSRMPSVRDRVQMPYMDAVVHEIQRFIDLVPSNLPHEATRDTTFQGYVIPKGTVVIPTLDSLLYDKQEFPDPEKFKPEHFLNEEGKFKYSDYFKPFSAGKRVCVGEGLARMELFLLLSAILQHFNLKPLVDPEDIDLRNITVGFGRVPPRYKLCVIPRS

| KI (inactivation) (CYP2E1) | Ki (CYP4A11) | Molecule | Km [1] |
| --- | --- | --- | --- |
| 312 µM | 9 ± 1 µM | CCCCCCCCCCCCOC(=S)S [C12, potassium O-dodecyl carbonodithioate] | – |
| – | – | CYP4A11 (Homo sapiens) (protein) VLSPSRLLGDVSGILQAASLLILLLLLIKAVQLYLHRQWLLKALQQFPCPPSHWLFGHIQELQQDQELQRIQKWVETFPSACPHWLWGGKVRVQLYDPDYMKVILGRSDPKSHGSYRFLAPWIGYGLLLLNGQTWFQHRRMLTPAFHYDILKPYVGLMADSVRVMLDKWEELLGQDSPLEVFQHVSLMTLDTIMKCAFSHQGSIQVDRNSQSYIQAISDLNNLVFSRVRNAFHQNDTIYSLTSAGRWTHRACQLAHQHTDQVIQLRKAQLQKEGELEKIKRKRHLDFLDILLLAKMENGSILSDKDLRAEVDTFMFEGHDTTASGISWILYALATHPKHQERCREEIHSLLGDGASITWNHLDQMPYTTMCIKEALRLYPPVPGIGRELSTPVTFPDGRSLPKGIMVLLSIYGLHHNPKVWPNPEVFDPFRFAPGSAQHSHAFLPFSGGSRNCIGKQFAMNELKVATALTLLRFELLPDPTRIPIPIARLVLKSKNGIHLRLRRLPNPCEDKDQL | 11.8 µM |
